Each structure is given as a SMILES string. Positions of bridges follow the written chain, without caps; N, C: chain ends. Non-standard residues stand in square brackets, D forms with d. Residues, ends and D or L forms follow the SMILES beside them. *: point of attachment. Phe(Nα-CONH2) = NC(=O)N[C@@H](Cc1ccccc1)C(=O)*; Phe(2,4-Cl2) = N[C@@H](Cc1ccc(Cl)cc1Cl)C(=O)O; Phe(3-Cl) = N[C@@H](Cc1cccc(Cl)c1)C(=O)O; Phe(4-NH2) = Nc1ccc(C[C@H](N)C(=O)O)cc1; dPhe(2-Me) = Cc1ccccc1C[C@@H](N)C(=O)O; Bta = N[C@@H](Cc1csc2ccccc12)C(=O)O; d(hLeu) = CC(C)CC[C@@H](N)C(=O)O; dCha = N[C@H](CC1CCCCC1)C(=O)O; dChg = N[C@@H](C(=O)O)C1CCCCC1; Nle = CCCC[C@H](N)C(=O)O; Orn = NCCC[C@H](N)C(=O)O

The first test deals with T1, human C5aR(CD88) (Homo sapiens, UniProt P21730).
T1 construct: expressed in transfected cells; host or cells: rat basophilic leukemia cells (RBL)
T1 sequence (P21730 1-350): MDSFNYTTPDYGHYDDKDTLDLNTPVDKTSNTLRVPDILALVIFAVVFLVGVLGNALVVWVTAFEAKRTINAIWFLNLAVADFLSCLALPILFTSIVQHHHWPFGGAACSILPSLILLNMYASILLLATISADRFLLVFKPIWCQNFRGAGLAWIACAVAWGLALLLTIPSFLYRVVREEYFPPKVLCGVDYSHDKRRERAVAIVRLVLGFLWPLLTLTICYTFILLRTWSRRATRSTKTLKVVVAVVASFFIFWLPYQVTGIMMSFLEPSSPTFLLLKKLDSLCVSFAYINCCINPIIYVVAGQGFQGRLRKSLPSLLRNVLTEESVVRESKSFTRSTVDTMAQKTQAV
Description: Determination of the IC50 value in an enzyme release assay (functional assay, antagonistic activity). The class given is cell-based. Conditions: antagonistic activity; IC50 group in enzyme release assay, RBL cells expressing human C5aR(CD88); read-out: activity (group).
Turning to `CC(=O)N[C@@H](Cc1ccccc1)C(=O)N[C@@H](CCCN)C(=O)N1CCC[C@H]1C(=O)N[C@H](CCC(C)C)C(=O)N[C@@H](Cc1csc2ccccc12)C(=O)N[C@@H](Cc1ccc(O)cc1)C(N)=O` [Compound 282, Ac-Phe-Orn-Pro-hle-Bta-Tyr-NH2] (Ac-F[Orn]P[d(hLeu)][Bta]Y-NH2), the IC50 lay within 0.05 to 0.2 µM. The same measure, in the same setting: then `CC(=O)N[C@@H](Cc1ccccc1)C(=O)N[C@@H](CCCN)C(=O)N1CCC[C@H]1C(=O)N[C@H](CC1CCCCC1)C(=O)N[C@@H](Cc1c[nH]c2ccccc12)C(=O)N[C@@H](Cc1ccccc1)C(N)=O` [Compound 51, Ac-Phe-Orn-Pro-cha-Trp-Phe-NH2] (Ac-F[Orn]P[dCha]WF-NH2), with 0.02 to 0.05 µM; and `CC(=O)N[C@@H](Cc1ccccc1)C(=O)N[C@@H](CCCCN)C(=O)N1CCC[C@H]1C(=O)N[C@H](CC1CCCCC1)C(=O)N[C@@H](Cc1c[nH]c2ccccc12)C(=O)N[C@@H](Cc1ccccc1)C(N)=O` [Compound 87, Ac-Phe-Lys-Pro-cha-Trp-Phe-NH2] (Ac-FKP[dCha]WF-NH2), with 0.05 to 0.2 µM; and `CC(=O)N[C@@H](Cc1ccccc1)C(=O)N[C@@H](CCCN)C(=O)N1CCC[C@H]1C(=O)N[C@H](CCC(C)C)C(=O)N[C@@H](Cc1ccc(Cl)cc1Cl)C(=O)N[C@@H](Cc1ccccc1)C(N)=O` [Compound 286, Ac-Phe-Orn-Pro-hle-Egy-Phe-NH2] (Ac-F[Orn]P[d(hLeu)][Phe(2,4-Cl2)]F-NH2), with 0.05 to 0.2 µM. Take `CCCC[C@@H]1NC(=O)[C@H](Cc2c[nH]c3ccccc23)NC(=O)[C@@H](Cc2ccccc2C)NC(=O)[C@@H]2CCCN2C(=O)[C@@H](NC(=O)[C@H](Cc2ccccc2)NC(C)=O)CCCNC1=O` [Compound 147, Ac-Phe-[Orn-Pro-omf-Trp-Nle]] (Ac-F[Orn]P[dPhe(2-Me)]W[Nle]; lactam 2-C): the IC50 fell in the range of 0.01 to 0.02 µM.

In the case of `CC(=O)N[C@@H](Cc1ccccc1)C(=O)N[C@@H](CCCN)C(=O)N1CCC[C@H]1C(=O)N[C@H](CCC(C)C)C(=O)N[C@@H](Cc1csc2ccccc12)C(=O)N[C@H](Cc1ccccc1)C(=O)O` [Compound 281, Ac-Phe-Orn-Pro-hle-Bta-phe-OH] (Ac-F[Orn]P[d(hLeu)][Bta][dF]-OH), the IC50 was 0.05 to 0.2 µM. Still for that read-out and setting: then `CC(=O)N[C@@H](Cc1ccccc1)C(=O)N[C@H]1CCCNC(=O)[C@H](Cc2ccc(N)cc2)NC(=O)[C@H](Cc2c[nH]c3ccccc23)NC(=O)[C@@H](CC2CCCCC2)NC(=O)[C@@H]2CCCN2C1=O` [Compound 14, Ac-Phe-[Orn-Pro-cha-Trp-Paf]] (Ac-F[Orn]P[dCha]W[Phe(4-NH2)]; lactam 2-C (inferred)), with 0.02 to 0.05 µM. With `CC(C)CC[C@H]1NC(=O)[C@@H]2CCCN2C(=O)[C@@H](NC(=O)[C@@H](N)Cc2ccccc2)CCCNC(=O)[C@H](Cc2ccccc2)NC(=O)[C@H](Cc2cccc(Cl)c2)NC1=O` [Compound 377, H-Phe-[Orn-Pro-hle-Mcf-Phe]] (H-F[Orn]P[d(hLeu)][Phe(3-Cl)]F; lactam 2-C), the IC50 is 0.02 to 0.05 µM.

On to `NCCC[C@H](NC(=O)[C@H](Cc1ccccc1)NC(N)=O)C(=O)N1CCC[C@H]1C(=O)N[C@H](CC1CCCCC1)C(=O)N[C@@H](Cc1csc2ccccc12)C(=O)N[C@@H](Cc1ccccc1)C(N)=O` [Compound 128, H2N—CO-Phe-Orn-Pro-cha-Bta-Phe-NH2] ({Phe(Nα-CONH2)}-[Orn]P[dCha][Bta]F-NH2), for which the IC50 was in the range of 0.02 to 0.05 µM. Still for that read-out and setting: then `CC(=O)N[C@@H](Cc1ccccc1)C(=O)N[C@@H](CCCN)C(=O)N1CCC[C@H]1C(=O)N[C@@H](C(=O)N[C@@H](Cc1c[nH]c2ccccc12)C(=O)N[C@@H](Cc1ccccc1)C(=O)O)C1CCCCC1` [Compound 118, Ac-Phe-Orn-Pro-chg-Trp-Phe-OH] (Ac-F[Orn]P[dChg]WF-OH), with 0.2 to 2 µM.

The same test, now with this note: functional assay of example 11, values in text; read-out: IC50.
Regarding `CC(=O)N[C@@H](Cc1ccccc1)C(=O)N[C@H]1CCCNC(=O)[C@H](Cc2ccc(N)cc2)NC(=O)[C@H](Cc2c[nH]c3ccccc23)NC(=O)[C@@H](CC2CCCCC2)NC(=O)[C@@H]2CCCN2C1=O` [Compound 14, Ac-Phe-[Orn-Pro-cha-Trp-Paf]] (Ac-F[Orn]P[dCha]W[Phe(4-NH2)]; lactam 2-C (inferred)), the IC50 was 0.03 µM.

Still in this test, the particulars now being: functional assay of example 11; noteworthy = IC50 less than 200 nM.
Take `CC(=O)N[C@@H](Cc1ccccc1)C(=O)N[C@H]1CCCNC(=O)[C@H](Cc2ccc(N)cc2)NC(=O)[C@H](Cc2c[nH]c3ccccc23)NC(=O)[C@@H](CC2CCCCC2)NC(=O)[C@@H]2CCCN2C1=O` [Compound 14, Ac-Phe-[Orn-Pro-cha-Trp-Paf]] (Ac-F[Orn]P[dCha]W[Phe(4-NH2)]; lactam 2-C (inferred)): the “inhibitory activity (in words)” value was “noteworthy inhibitory activity”.

Values taken from patent US20080161232A1, “C5a Receptor Antagonist” (JERINI AG, priority 2005, published 2008).
